Assay results taken from US8686143B2, “Compounds useful as inhibitors of Janus kinases” (Vertex Pharmaceuticals Incorporated, priority 2007, dated 2014).

biological target: T1, JAK3 (Homo sapiens, UniProt P52333); experiment: JAK3 Inhibition Assay (33P incorporation into poly(Glu)4Tyr); type: biochemical; details: 1 nM JAK3, 5 μM ATP, 1 μM poly(Glu)4Tyr, 25° C.
T1 sequence (P52333 1-1124): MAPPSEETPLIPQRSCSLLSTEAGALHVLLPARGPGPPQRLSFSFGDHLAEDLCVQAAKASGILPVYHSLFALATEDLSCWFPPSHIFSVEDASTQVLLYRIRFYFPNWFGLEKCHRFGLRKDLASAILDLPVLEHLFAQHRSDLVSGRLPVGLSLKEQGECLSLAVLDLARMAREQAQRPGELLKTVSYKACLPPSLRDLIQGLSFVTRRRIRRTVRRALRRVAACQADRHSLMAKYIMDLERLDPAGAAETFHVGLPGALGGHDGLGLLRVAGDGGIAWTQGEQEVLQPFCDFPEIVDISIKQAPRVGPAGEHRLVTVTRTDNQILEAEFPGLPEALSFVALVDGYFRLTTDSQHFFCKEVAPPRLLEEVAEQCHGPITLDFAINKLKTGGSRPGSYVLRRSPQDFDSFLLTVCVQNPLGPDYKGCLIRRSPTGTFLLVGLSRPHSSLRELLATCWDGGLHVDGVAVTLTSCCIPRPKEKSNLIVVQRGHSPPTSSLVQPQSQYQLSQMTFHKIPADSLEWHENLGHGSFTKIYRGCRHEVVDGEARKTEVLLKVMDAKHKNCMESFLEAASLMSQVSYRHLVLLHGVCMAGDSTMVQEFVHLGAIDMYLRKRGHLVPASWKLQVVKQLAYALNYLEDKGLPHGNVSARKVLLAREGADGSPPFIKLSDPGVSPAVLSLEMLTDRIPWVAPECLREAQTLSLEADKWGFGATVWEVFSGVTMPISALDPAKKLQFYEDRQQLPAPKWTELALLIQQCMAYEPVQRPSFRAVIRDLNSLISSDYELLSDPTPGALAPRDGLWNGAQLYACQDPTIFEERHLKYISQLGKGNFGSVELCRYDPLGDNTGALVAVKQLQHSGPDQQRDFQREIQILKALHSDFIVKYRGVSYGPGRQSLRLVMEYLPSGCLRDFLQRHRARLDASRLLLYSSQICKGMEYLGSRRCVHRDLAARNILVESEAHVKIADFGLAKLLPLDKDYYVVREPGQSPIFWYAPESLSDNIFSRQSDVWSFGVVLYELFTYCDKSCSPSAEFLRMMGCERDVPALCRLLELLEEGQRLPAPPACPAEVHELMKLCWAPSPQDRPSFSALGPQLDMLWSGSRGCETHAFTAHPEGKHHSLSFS
Description: Compounds were screened for their ability to inhibit JAK3 using the assay shown below. Reactions were carried out in a kinase buffer containing 100 mM HEPES (pH 7.4), 1 mM DTT, 10 mM MgCl2, 25 mM NaCl, and 0.01% BSA. Substrate concentrations in the assay were 5 μM ATP (200 uCi/μmole ATP) and 1 μM poly(Glu)4Tyr. Reactions were carried out at 25° C. and 1 nM JAK3.
To each well of a 96 well polycarbonate plate was added 1.5 μl of a candidate JAK3 inhibitor along with 50 μlof kinase buffer containing 2 μM poly(Glu)4Tyr and 10 μM ATP. This was then mixed and 50 μl of kinase buffer containing 2 nM JAK3 enzyme was added to start the reaction. After 20 minutes at room temperature (25° C.), the reaction was stopped with 50 μl of 20% trichloroacetic acid (TCA) that also contained 0.4 mM ATP. The entire contents of each well were then transferred to a 96 well glass fiber filter plate using a TomTek Cell Harvester. After washing, 60 μl of scintillation fluid was added and ^33P incorporation detected on a Perkin Elmer TopCount.

Ki, ≤ 1 µM:
CC(C)(Nc1ccnc(-c2ccc3ncccc3c2)n1)C(=O)NCC(F)(F)F [Compound 75], CC(C)(Nc1nc(-c2ccc3ncsc3c2)ncc1F)C(=O)NCC(F)(F)F [Compound 140], C[C@H](Nc1cc(-n2nc(Nc3ccc(F)cc3)nc2N)ncn1)C(=O)NCC(F)(F)F [Compound 33], CC(C)(Nc1nc(-c2ccc3ncccc3c2)ncc1F)C(=O)NCC(F)(F)F [Compound 68], CC(C)(Nc1nc(-c2c[nH]c(C(=O)N3CCCC3)c2)ncc1F)C(=O)NCC(F)(F)F [Compound 97], Nc1nc(Nc2ccc(F)cc2)nn1-c1cc(N2CCC[C@@H]2C(=O)NCC(F)(F)F)ncn1 [Compound 37], O=C(NCC(F)(F)F)[C@H]1CCCN1c1nc(-c2c[nH]c(C(=O)N3CC=CC3)c2)ncc1F [Compound 120]

Ki, 1 to 10 µM:
O=C(NCC(F)(F)F)[C@H]1CCCN1c1ccnc(-c2ccc3ncccc3c2)n1 [Compound 60], CC(C)(Nc1ccnc(-c2c[nH]c(C(=O)NC3CC3)c2)n1)C(=O)NCC(F)(F)F [Compound 98], CCNC(=O)c1cc(-c2ncc(F)c(NC(C)(C)C(=O)NCC(F)(F)F)n2)c[nH]1 [Compound 93], O=C(CNc1nc(-c2cccnc2)ncc1F)NCC(F)(F)F [Compound 11], CC(C)[C@@H](Nc1nc(-c2ccc3ncccc3c2)ncc1F)C(=O)NCC(F)(F)F [Compound 77], CC(C)[C@@H](Nc1ccnc(-c2ccc3nc(N)sc3c2)n1)C(=O)NCC(F)(F)F [Compound 73], O=C(NCC(F)(F)F)[C@@H]1CCCN1c1nc(-c2cccnc2)ncc1F [Compound 26], CC(C)(Nc1ccnc(-c2c[nH]c(=O)c(N)c2)n1)C(=O)NCC(F)(F)F [Compound 136], Nc1nc2ccc(-c3nccc(N4CCC[C@@H]4C(=O)NCC(F)(F)F)n3)cc2s1 [Compound 61], Nc1nc(Nc2ccc(F)cc2)nn1-c1ncc(F)c(N2CCC[C@@H]2C(=O)NCC(F)(F)F)n1 [Compound 44], O=C(NCc1ccccc1)c1cc(-c2nccc(N3CCC[C@@H]3C(=O)NCC(F)(F)F)n2)c[nH]1 [Compound 121], CC(C)(Nc1nc(-c2c[nH]c(C(=O)NC3CC3)c2)ncc1F)C(=O)NCC(F)(F)F [Compound 94], Nc1nc(Nc2ccccc2)nn1-c1ncc(F)c(N2CCC[C@@H]2C(=O)NCC(F)(F)F)n1 [Compound 51], Nc1ncccc1-c1ncc(F)c(N2CC(C(=O)NCC(F)(F)F)C2)n1 [Compound 32], CC(C)C(Nc1nc(-c2c[nH]c(C(=O)N3CCCC3)c2)ncc1F)C(=O)NCC(F)(F)F (stereo not drawn) [Compound 107], CC(C)(Nc1nc(-c2ccc3nc(N)sc3c2)ncc1F)C(=O)NCC(F)(F)F [Compound 66], CC(C)(Nc1nc(-c2c[nH]c(C(=O)O)c2)ncc1F)C(=O)NCC(F)(F)F [Compound 133], CC(=O)Nc1nc2ccc(-c3nccc(N[C@@H](C(=O)NCC(F)(F)F)C(C)C)n3)cc2s1 [Compound 65], CC(C)[C@@H](Nc1nc(-c2ccc3nc(N)sc3c2)ncc1F)C(=O)NCC(F)(F)F [Compound 78]

Ki, 10 to 50 µM:
CC(C)[C@@H](Nc1nc(-c2ccc3c(c2)OCO3)ncc1F)C(=O)NCC(F)(F)F [Compound 76], CC(C)C(Nc1nc(-c2c[nH]c(C(=O)NCC3CC3)c2)ncc1F)C(=O)NCC(F)(F)F (stereo not drawn) [Compound 106], CC(C)[C@@H](Nc1ccnc(-c2ccc3c(c2)OCO3)n1)C(=O)NCC(F)(F)F [Compound 71], CC(C)[C@@H](Nc1nc(-c2ccc(O)cc2)ncc1F)C(=O)NCC(F)(F)F [Compound 142], CC(C)NC(=O)c1cc(-c2nccc(NC(C)(C)C(=O)NCC(F)(F)F)n2)c[nH]1 [Compound 100], O=C(NCC(F)(F)F)[C@H]1CCCN1c1nc(-c2ccc3ncccc3c2)ncc1F [Compound 89], O=C(NCC(F)(F)F)[C@H]1CCCN1c1nc(-c2ccc(O)cc2)ncc1F [Compound 151]

same assay, conditions: at concentrations of 5.0 μM

Inhibition of JAK3 at concentrations of 5.0 μM, did not inhibit:
Nc1nc(NC2CC2)nn1-c1ncc(F)c(N2CCC[C@@H]2C(=O)NCC(F)(F)F)n1 [Compound 52], CC(C)Nc1nc(N)n(-c2ncc(F)c(N3CCC[C@@H]3C(=O)NCC(F)(F)F)n2)n1 [Compound 53], COc1ccc(Nc2nc(N)n(-c3ncc(F)c(N4CCC[C@@H]4C(=O)NCC(F)(F)F)n3)n2)c(C)c1 [Compound 40], Nc1nc(Nc2cccnc2)nn1-c1ncc(F)c(N2CCC[C@@H]2C(=O)NCC(F)(F)F)n1 [Compound 46], Nc1nc(NCC2CCCO2)nn1-c1ncc(F)c(N2CCC[C@@H]2C(=O)NCC(F)(F)F)n1 (stereo partly drawn) [Compound 55]

same assay, conditions: at concentrations of 50 μM

Inhibition of JAK3 at concentrations of 50 μM, did not inhibit:
COc1ccc(-c2ncc(F)c(NCCC(=O)NCC(F)(F)F)n2)cn1 [Compound 14], CC(C)[C@@H](Nc1nc(-c2ccc(=O)[nH]c2)ncc1F)C(=O)NCC(F)(F)F [Compound 87], COc1ccc(-c2ncc(F)c(N[C@@H](C(=O)NCC(F)(F)F)C(C)C)n2)cn1 [Compound 81], O=C(O)c1cc(-c2ncc(F)c(N3CCC[C@@H]3C(=O)NCC(F)(F)F)n2)c[nH]1 [Compound 127], O=C(NCC(F)(F)F)[C@H]1CCCN1c1nc(-c2c[nH]c3ccc(Cl)cc23)ncc1F [Compound 157], Nc1cc(-c2ncc(F)c(N3CCC[C@@H]3C(=O)NCC(F)(F)F)n2)c[nH]c1=O [Compound 138], O=C(CCNc1nc(-c2cn[nH]c2)ncc1F)NCC(F)(F)F [Compound 16], CC(C)NC(=O)c1cc(-c2nccc(N[C@@H](C(=O)NCC(F)(F)F)C(C)C)n2)c[nH]1 [Compound 111], O=C(NCC(F)(F)F)[C@H]1CCCN1c1nc(-c2cccnc2)ncc1F [Compound 23], COc1ccc(-c2ncc(F)c(N[C@H](C)C(=O)NCC(F)(F)F)n2)cn1 [Compound 18], O=C(NCC(F)(F)F)[C@H]1CCCN1c1nc(-c2ccc(F)nc2)ncc1F [Compound 22], CC(C)NC(=O)c1cc(-c2ncc(F)c(N3CCC[C@@H]3C(=O)NCC(F)(F)F)n2)c[nH]1 [Compound 117], CC(C)(Nc1nc(-c2ccc3c(c2)OCCO3)ncc1F)C(=O)NCC(F)(F)F [Compound 125], COc1ccc(-c2ncc(F)c(N[C@@H](C(=O)NCC(F)(F)F)C(C)C)n2)cc1 [Compound 145], C[C@H](Nc1nc(-c2ccc(F)nc2)ncc1F)C(=O)NCC(F)(F)F [Compound 1], C[C@@H](Nc1nc(-c2ccc(F)nc2)ncc1F)C(=O)NCC(F)(F)F [Compound 19]
